Test results from patent publication US5932584A, “Optically active 2,3-dihydroimidazo(1,2-C) quinazoline derivatives, the preparation and antihypertensive use thereof” (National Science Council, priority 1997, dated 1999).

Biological target: α1 -Adrenergic receptor
Assay: α1-Adrenergic receptor binding assay ([^3 H] prazosin competition, rat brain cortex membranes)
Settings: preliminary results; read-out: affinity to α1 -adrenoceptor (Ki)
Description: Rat brain cortex membranes were prepared for [^3 H] prazosin or [^3 H] clonidine binding by homogenizing tissues in 0.32 M sucrose buffered with 50 mM Tris buffer (pH 7.4) in a tissue/buffer ratio of 1:10. After the removal of nuclei by centrifugation at 1000×g for 10 min, P2 membranes were pelleted by centrifuging the supernatant at 22,000×g for 20 min. After two periods of centrifugation at 22,000×g and resuspension in fresh buffer, the membrane suspension (about 2 mg/ml protein) was ready for use.
α1 -Adrenergic receptor binding assays (in triplicate) were carried out with 0.2 nM [^3 H] prazosin in a final volume of 1.0 ml of Tris buffer at pH 7.4 for 30 min at room temperature, using […] phentolamine to determine non-specific binding. […] The concentrations of synthetic compounds for competition binding were in the range of 0.1-100 μM. After binding had reached equilibrium, incubations were terminated by collecting the membranes on Whatman GF/B filters; the filters were washed twice with 5 ml of 50 mM Tris buffer (pH 7.4) at 4° C.
[^3 H]prazosin (76.6 Ci/mmol) and [^3 H]clonidine (47.0 Ci/mmol) were purchased from NEN. All other chemicals used were reagent grade and were purchased from Sigma (St. Louis, Mo.).

Structure (SMILES) | Ki
COc1ccccc1N1CCN(CC2CN=C3c4ccccc4N=C(SC)N32)CC1 (racemic) [(RS)-I, reference compound] | 3.55 nM
COc1ccccc1N1CCN(C[C@H]2CN=C3c4ccccc4NC(=O)N32)CC1 [Example 18] | 0.1 nM
COc1ccccc1N1CCN(C[C@H]2CN=C3c4ccccc4N=C(SC)N32)CC1 [Example 16] | 1.88 nM
COc1ccccc1N1CCN(C[C@@H]2CN=C3c4ccccc4N=C(SC)N32)CC1 [Example 17] | 554 nM

Same assay, conditions: rat brain cortex membranes, 0.2 nM [^3 H] prazosin, pH 7.4, 30 min, room temperature; read-out: α1 Binding (Ki)

Structure (SMILES) | Ki
COc1ccccc1N1CCN(C[C@H]2CN=C3c4ccccc4NC(=O)N32)CC1 [Example 18] | 0.1 nM
COc1ccccc1N1CCN(C[C@H]2CN=C3c4ccccc4N=C(SC)N32)CC1 [Example 16] | 1.88 nM
COc1ccccc1N1CCN(C[C@@H]2CN=C3c4ccccc4N=C(SC)N32)CC1 [Example 17] | 554 nM
COc1ccccc1N1CCN(C[C@@H]2CN=C3c4ccccc4NC(=O)N32)CC1 [Example 19] | 26 nM
